Key:
As230 antiserum = test: Cross-reactivity determinations in the indirect competitive ELISA As230/PC1-BSA (AE); type: binding, New Zealand white rabbits; conditions: for % RC (cross-reactivity): (IC50 1-hydroxyphenazine/IC50 phenazine compound)x100; for IC50: calibration curves in PBST, coating antigen PC1-BSA (AE), antiserum As230
Protocol: The MALDI-TOF-MS mass spectrometer (mass spectrometer with laser assisted by ionization/desorption matrix with flight time) which it uses to characterize the conjugates of protein was a Bruker 200-Hz SmartBeam (Bruker-Daltonics, Leipzig, Germany). The detection was performed in the positive ion mode, ionized with a laser power set at 70% of the maximum laser intensity of the instrument at a frequency of 10-100 Hz. The pH and the conductivity of all the buffers and solutions was measured with a 540 GLP phMeter and a LF 340 conductivity meter, respectively (WTW, Weilheim, Germany). The polystyrene microtiter plates were from Nunc (Maxisorp, Roskilde, Denmark). The washing steps were carried out using a microplate washer (ELx405 HT (BioTek, Vinooski, Vt., USA)). The absorbencies were read in a SpectramaxPlus (Molecular Devices, Sunnyvale, Calif.) in a wavelength mode of 450 nm. The competition curves were analysed with a four-parameter equation using the SoftmaxPro v4.7 (Molecular Devices) and GraphPad Prism v 4 (GraphPad Software Inc, San Diego, Calif.) software. The standard curve was adjusted to a logistical equation of four parameters according to the formula y=(A−B/[1−(x/C)D])+B, where A is the maximum absorbance, B is the minimum absorbance, C is the concentration which produces 50% of the difference between the maximum and minimum absorbance (or IC50), and D is the gradient in the point of inflection of the sigmoidal curve. Unless indicated otherwise, the data shown correspond to the mean of at least two replicates.
The polyclonal antiserums As230, As231 and As232 were obtained by the immunization of New Zealand white rabbits (female) with weights around 1-2 kg with PC1-HCH (MA) following a protocol already described by Ballesteros et al. (Analytica Chimica Acta 1997, 347, 139). The evolution of the titers of antibodies was assessed by measuring the binding of serial solutions of each antiserum to microtiter plates coated with the homologous BSA conjugate. Once acceptable titers of antibodies are obtained, the animals were exsanguinated and the blood was collected in Vacutainer tubes provided with serum separation gel. The antiserums were obtained by centrifugation and were stored at −80° C. in the presence of 0.02% NaN3.
The microtiter plates were coated with PC1-BSA (AE) (0.125 μg/ml with coating buffer 100 μL/well) during 4 h at 25° C. with adhesive sealants. Then, the plates were washed four times with PBST (300 μL/well) before adding the standards (1-hydroxyphenazine or another type of related analytes, at different concentrations from 1000 nM to 0 nM in PBhST), and the samples at different concentrations (50 μl/well), followed by the As230 antiserum solution (1/8000 dilution in PBhST, 50 μl/well). After 30 min at ambient temperature, the plates were washed a further nine times with PBST and the anti-IgG-HRP solution was added (1/6000 in PBST, 100 μl/well). After 30 min of incubation at ambient temperature, the microplates were again washed four times with PBST and the substrate solution was added (100 μl/well) and the enzyme reaction was stopped after 30 min at ambient temperature by H2SO4 4 N (50 μl/well). The absorbencies were measured at 450 nm. The standard curve was adjusted to a logistical equation of four parameters according to the formula y=(A−B/[1−(x/C) D])+B, where A is the maximum absorbance, B is the minimum absorbance, C is the concentration that produces 50% of the difference between the maximum absorbance and minimum absorbance of the absorbance (or IC50), and D is gradient in the point of inflection of the sigmoidal curve. The limit of detection (LOD) is defined as the concentration which gives 90% response of the maximum absorbance (IC90) (see FIG. 1 and table 1).
Stock solutions were prepared of different compounds structurally related with pyocyanin and 1-hydroxyphenazine (10 mM in dimethyl sulfoxide) and they were stored at 4° C. […]

[1] = Conversion of pyocyanin into 1-hydroxyphenazine by NaOH, controlled by HPLC-UV; type: physicochemical; conditions: 1 M NaOH, 20 min at a.t., phenazine as internal standard
Protocol: A 2M NaOH solution (250 μL) was added to a vial containing pyocyanin (10 mM, 25 μL) in 10 mM PBS (85 μL), previously spiked with phenazine (500 μM, 140 μL). The progress of the reaction was monitored by extracting aliquots (10 μL) from the reaction solution at various time intervals, diluting them with 250 mM PBS (90 μL) and adding 1 M HCl (10 μL) to neutralize the pH.
Therefore, it was necessary to develop a simple method to convert pyocyanin in 1-hydroxyphenazine with a good yield. This could be achieved by treating pyocyanin solutions with 1 M NaOH during 20 min at a.t. […] As shown in FIG. 2 (bottom), a good correlation was observed (R^2=0.943) between the sample measurements and the spiked samples for the detection of pyocyanin once hydrolyzed.

Structure (SMILES)	% RC (cross-reactivity) (As230 antiserum) [%]	IC50 (As230 antiserum) [nM]	% RC (cross-reactivity) (As230 antiserum; listed as pyocyanin)	conversion of pyocyanin in 1-hydroxyphenazine (hydrolysis of the methyl group) [1]
Oc1cccc2nc3ccccc3nc12 [1-hydroxyphenazine]	100	0.62		
COS(=O)(=O)[O-].C[n+]1c2ccccc2nc2ccccc21 [Methyl 5-methylphenazine sulfate]	0.4	140		
c1ccc2nc3ccccc3nc2c1 [Phenazine]	<0.1	> 800		
O=C(O)c1ccc2nc3ccccc3nc2c1 [Phenazine-2-carboxylic acid]	<0.1	> 800		
Cn1c2cccc(=O)c-2nc2ccccc21 [Pyocyanin, pyocyanin]	<0.1	> 800	less than 0.1%	quantitative

From US10422791B2, “Haptens and conjugates derived from pyocyanin, antibodies thereof, and immunochemical method for detecting infections caused by Pseudomonas aeruginosa” (priority 2013, dated 2019)
